Experimental data as given in patent US10640495B2, “Heterocycle derivatives having TrkA inhibitory activity” (Shionogi & Co., Ltd., priority 2015, dated 2020).
Like-named read-outs stand apart in the source and are kept apart here.

Target: human TrkA (Homo sapiens (Human), UniProt P04629)
Assay: Human TrkA inhibition assay (Test Example 2)
Type: biochemical
Procedure, shortened: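 Recombinant TrkA (1 nmol/L) was preincubated 15 min at room temperature with compound in HEPES/MgCl2/DTT buffer, then reacted with FL-peptide 27 (1.5 μmol/L) and ATP (500 μmol/L) for 120 min at 37 °C. After EDTA stop, substrate phosphorylation was read by microfluidic mobility shift. IC50 came from logistic regression over 3-fold dilution series.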

[1] = Table 155, human TrkA inhibition, read-out: IC50
[2] = Table 153, human TrkA inhibition, read-out: IC50
[3] = Table 156, human TrkA inhibition, read-out: IC50
[4] = Table 154, human TrkA inhibition, read-out: IC50
[5] = Table 157, human TrkA inhibition, read-out: IC50
[6] = Table 152, human TrkA inhibition, read-out: IC50_nM

Chain of human TrkA (P04629 440-796): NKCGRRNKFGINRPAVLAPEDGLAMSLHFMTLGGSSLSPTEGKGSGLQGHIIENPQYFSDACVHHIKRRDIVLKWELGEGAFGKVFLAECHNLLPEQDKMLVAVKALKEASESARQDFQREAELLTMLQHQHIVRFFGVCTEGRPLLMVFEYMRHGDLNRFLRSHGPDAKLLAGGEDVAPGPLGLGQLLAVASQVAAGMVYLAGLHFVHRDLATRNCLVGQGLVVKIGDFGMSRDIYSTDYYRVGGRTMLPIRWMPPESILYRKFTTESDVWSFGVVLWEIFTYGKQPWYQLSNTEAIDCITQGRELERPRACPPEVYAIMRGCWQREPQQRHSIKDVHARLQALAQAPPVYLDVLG

For COCCN1C[C@@H](NC(=O)Nc2c(C)c(-c3cc(F)c4c(c3)NCCO4)nn2-c2ccccc2)[C@H](c2ccnc(F)c2)O1 (racemic) [Compound I-383], the IC50 [1] was < 100 nM.
For CNC(=O)c1cc(-c2nn(-c3ccccc3)c(NC(=O)N[C@@H]3CN(CCOC)O[C@H]3c3ccnc(F)c3)c2C)cnc1OC (racemic) [Compound I-100], the IC50 [2] was < 100 nM.
For COc1ncc(-c2nn(-c3ccccc3)c(NC(=O)N[C@@H]3CN(CCF)O[C@H]3c3ccc(F)c(F)c3)c2C)cn1 (racemic) [Compound I-525], the IC50 [3] was < 100 nM.
For COCCN1C[C@@H](NC(=O)Nc2c(C)c(-c3cnc(N4CCC4)nc3)nn2-c2ccccc2)[C@H](c2ccnc(F)c2)O1 (racemic) [Compound I-266], the IC50 [4] was < 100 nM.
COCCN1C[C@@H](NC(=O)Nc2c(C)c(-c3ccc(C#N)cc3)nn2-c2ccccc2)[C@H](c2cnc(F)c(F)c2)O1 (racemic) [Compound I-60] was tested, and the IC50 [2] was < 100 nM.
CCOc1nn(-c2ccccc2)c(NC(=O)N[C@@H]2CN(CCOC)O[C@H]2c2ccc(F)c(F)c2)c1C [Compound I-519] was tested, and the IC50 [3] was < 100 nM.
COCCN1C[C@@H](NC(=O)Nc2c(C)c(-c3ccc(N4C[C@H]5COC[C@@H](C4)N5)nc3)nn2-c2ccccc2)[C@H](c2ccnc(F)c2)O1 (racemic) [Compound I-394] was tested, and the IC50 [1] was < 100 nM.
With CCN1C[C@@H](NC(=O)Nc2c(C)c(OCCCC(=O)N(C)C)nn2-c2ccccc2)[C@H](c2ccc(F)c(F)c2)O1 (racemic) [Compound I-664] the IC50 [5] was < 100 nM.
In the case of COCCN1C[C@@H](NC(=O)Nc2c(C)c(-c3cnc4c(c3)c(C(=O)N3CCN(C)CC3)nn4C)nn2-c2ccccc2)[C@H](c2ccnc(F)c2)O1 (racemic) [Compound I-377], the IC50 [1] is reported as < 100 nM.
In the case of COCCN1C[C@@H](NC(=O)Nc2c(C)c(-c3cnc4c(c3)c(C(=O)OC)nn4C)nn2-c2ccccc2)[C@H](c2ccnc(F)c2)O1 (racemic) [Compound I-369], the IC50 [1] is reported as < 100 nM.
For COCCN1C[C@@H](NC(=O)Nc2c(C)c(-c3cnc(N4CCNOCC4)nc3)nn2-c2ccccc2)[C@H](c2ccnc(F)c2)O1 (racemic) [Compound I-507], the IC50 [1] was < 100 nM.
COCCN1C[C@@H](NC(=O)Nc2c(C)c(-c3cnn(C)c3)nn2-c2ccccn2)[C@H](c2ccc(F)c(F)c2)O1 [Compound I-447] was tested, and the IC50 [1] was < 100 nM.
With CNC(=O)c1cc(-c2nn(-c3ccccc3)c(NC(=O)N[C@@H]3CN(CCOC)O[C@H]3c3ccccc3)c2C)cn(C)c1=O (racemic) [Compound I-163] the IC50 [2] was < 100 nM.
COCC[C@@H]1C[C@@H](NC(=O)Nc2c(C)c(C3=CCN(C(=O)CO)CC3)nn2-c2ccccc2)[C@H](c2ccc(F)c(F)c2)O1 (racemic) [Compound I-56] was tested, and the IC50 [2] was < 100 nM.
With COCCN1C[C@@H](NC(=O)Nc2c(C)c(CO)nn2-c2ccccc2)[C@H](c2ccc(F)c(F)c2)O1 [Compound I-619] the IC50 [5] was < 100 nM.
COCCN1C[C@@H](NC(=O)Nc2c(C)c(-c3cnc(N4CCN(C)CC4)nc3)nn2-c2ccccc2)[C@H](c2cc(F)nc(F)c2)O1 (racemic) [Compound I-380] was tested, and the IC50 [1] was < 100 nM.
For COCCN1C[C@@H](NC(=O)Nc2c(C)c(-c3cnc(OC4CC4)nc3)nn2-c2ccccc2)[C@H](c2ccnc(F)c2)O1 (racemic) [Compound I-425], the IC50 [1] was < 100 nM.
For CCN1C[C@@H](NC(=O)Nc2c(C)c(OCC3CN(C(C)=O)CCO3)nn2-c2ccccc2)[C@H](c2ccc(F)c(F)c2)O1 (stereo partly shown) [Compound I-546], the IC50 [3] was < 100 nM.
With COCCN1C[C@@H](NC(=O)Nc2c(C)c(-c3cnn(C)c3)nn2-c2ccccc2)[C@H](c2ccc(F)c(F)c2)O1 (racemic) [Compound I-8] the IC50 [6] was < 100 nM.
With COCCN1C[C@@H](NC(=O)Nc2c(C)c(OCc3cnn(C)c3)nn2-c2ccccc2)[C@H](c2ccnc(F)c2)O1 (racemic) [Compound I-472] the IC50 [1] was < 100 nM.
COCCN1C[C@@H](NC(=O)Nc2c(C)c(-c3cnc(OC)c(COC(C)=O)c3)nn2-c2ccccc2)[C@H](c2ccc(F)c(F)c2)O1 [Compound I-636] was tested, and the IC50 [5] was < 100 nM.
With COCCN1C[C@@H](NC(=O)Nc2c(C)c(C3=CCN(C(=O)OC(C)(C)C)CC3)nn2-c2ccccc2)[C@H](c2ccnc(F)c2)O1 (racemic) [Compound I-41] the IC50 [6] was < 100 nM.
For COCCN1C[C@@H](NC(=O)Nc2c(C)c(-c3ccn4nc(C)nc4c3)nn2-c2ccccc2)[C@H](c2ccnc(F)c2)O1 (racemic) [Compound I-156], the IC50 [2] was < 100 nM.
With COCCN1C[C@@H](NC(=O)Nc2c(C)c(-c3ccn4c(C)nnc4c3)nn2-c2ccccc2)[C@H](c2ccnc(F)c2)O1 (racemic) [Compound I-155] the IC50 [2] was < 100 nM.
For COCCN1C[C@@H](NC(=O)Nc2c(C)c(-c3cnc(CN(C)C)nc3)nn2-c2ccccc2)[C@H](c2ccc(F)c(F)c2)O1 (racemic) [Compound I-528], the IC50 [3] was < 100 nM.
COCCN1C[C@@H](NC(=O)Nc2c(C)c(-c3cnc4c(c3)c(CN3CCC(F)(F)C3)nn4C)nn2-c2ccccc2)[C@H](c2ccnc(F)c2)O1 (racemic) [Compound I-423] was tested, and the IC50 [1] was < 100 nM.
With COCCN1C[C@@H](NC(=O)Nc2c(C)c(-c3cnc4c(c3)nc(C(=O)NC3CCN(C)CC3)n4C)nn2-c2ccccc2)[C@H](c2ccnc(F)c2)O1 (racemic) [Compound I-404] the IC50 [1] was < 100 nM.
CCN1C[C@@H](NC(=O)Nc2c(C)c(OCC3CCNCC3)nn2-c2ccccc2)[C@H](c2ccc(F)c(F)c2)O1 (racemic) [Compound I-559] was tested, and the IC50 [3] was < 100 nM.
In the case of COCCN1C[C@@H](NC(=O)Nc2c(C)c(C)nn2-c2ccccc2)[C@H](c2ccnc(F)c2)O1 (racemic) [Compound I-522], the IC50 [3] is reported as < 100 nM.
With COCCN1C[C@@H](NC(=O)Nc2c(C)c(-c3cnc(N(C(=O)OC(C)(C)C)C4CC4)nc3)nn2-c2ccccc2)[C@H](c2ccnc(F)c2)O1 (racemic) [Compound I-120] the IC50 [2] was < 100 nM.
With COCCN1C[C@@H](NC(=O)Nc2c(C)c(-c3cnc(OC)c(F)c3)nn2-c2ccccc2)[C@H](c2ccnc(F)c2)O1 (racemic) [Compound I-367] the IC50 [1] was < 100 nM.
Molecule Cc1c(-c2cnc3c(cnn3C)c2)nn(-c2ccccc2)c1NC(=O)N[C@@H]1CN(Cc2cnn(C)c2)O[C@H]1c1ccc(F)c(F)c1 (racemic) [Compound I-205] has an IC50 [4] of 100 to 1000 nM.
In the case of COCCN1C[C@@H](NC(=O)Nc2c(C)c(-c3ccnc(C(=O)NO)c3)nn2-c2ccccc2)[C@H](c2cnc(F)c(F)c2)O1 [Compound I-231], the IC50 [4] is reported as < 100 nM.
In the case of COCCN1C[C@@H](NC(=O)Nc2c(C)c(CO[Si](C)(C)C(C)(C)C)nn2-c2ccccc2)[C@H](c2ccc(F)c(F)c2)O1 [Compound I-605], the IC50 [5] is reported as 100 to 1000 nM.
In the case of COCCN1C[C@@H](NC(=O)Nc2c(C)c(Oc3ccnc(F)c3)nn2-c2ccccc2)[C@H](c2ccnc(F)c2)O1 (racemic) [Compound I-442], the IC50 [1] is reported as 100 to 1000 nM.
With COCCN1C[C@@H](NC(=O)Nc2c(C)c(-c3cnc(OC4CCN(C)CC4)nc3)nn2-c2ccccc2)[C@H](c2ccc(F)c(F)c2)O1 [Compound I-464] the IC50 [1] was < 100 nM.
COCCN1C[C@@H](NC(=O)Nc2c(C)c(-c3cnc4c(c3)CC(=O)N4C)nn2-c2ccccc2)[C@H](c2cnc(F)c(F)c2)O1 (racemic) [Compound I-303] was tested, and the IC50 (human TrkA 1 nmol/L, ATP 500 μmol/L, 120 min at 37° C., read-out: IC50 values (TrkA phosphorylation inhibition)) was 1.5 nM.
For COCCN1C[C@@H](NC(=O)Nc2c(C)c(-c3cccc(C(=O)O)c3)nn2-c2ccccc2)[C@H](c2ccc(F)c(F)c2)O1 (racemic) [Compound I-51], the IC50 [2] was < 100 nM.
COCCN1C[C@@H](NC(=O)Nc2c(C)c(CN(C)C)nn2-c2ccccc2)[C@H](c2ccc(F)c(F)c2)O1 [Compound I-640] showed an IC50 [5] of 100 to 1000 nM.
For COCCC1C[C@H](NC(=O)Nc2c(C)c(-c3cnn(C)c3)nn2-c2ccccc2)[C@@H](c2ccccc2)O1 (stereo partly shown) [Compound I-17], the IC50 [6] was > 1000 nM.
